# Data published in US11427615B2, “Peptide compound and application thereof, and composition containing peptide compound” (XDCEXPLORER (SHANGHAI) CO., LTD., priority 2017, dated 2022).
# Starred links: 1 amine or outer side, 2 acyl side, 3 side chain; linkers in the order of their positions; H or OH if unused. Non-standard residues stand in square brackets, D forms with d. Residues, ends and D or L forms follow the SMILES beside them. dPhe(3-Cl) = N[C@H](Cc1cccc(Cl)c1)C(=O)O; dPhe(4-Cl) = N[C@H](Cc1ccc(Cl)cc1)C(=O)O; X12 = O=C([C@@H]1Cc2ccccc2N1[*:1])[*:2]; Pro(4,4-F2) = O=C(O)[C@@H]1CC(F)(F)CN1; dAla(2-furyl) = N[C@H](Cc1ccco1)C(=O)O; dPhe(4-F) = N[C@H](Cc1ccc(F)cc1)C(=O)O; Arg(Me) = CNC(=N)NCCC[C@H](N)C(=O)O; Hyp = O=C(O)[C@@H]1C[C@@H](O)CN1; Tic = O=C(O)[C@@H]1Cc2ccccc2CN1; Ac6c = NC1(C(=O)O)CCCCC1; Aze = O=C(O)[C@@H]1CCN1; azaGly = NNC(=O)O
# Target: T1, human kiss1 receptor (GPR54) (Homo sapiens, UniProt Q969F8)
# T1 construct: host or cells: NFAT-bla CHO-K1 cells (Chinese hamster ovary), purchased recombinant cell line
# Assay: Kiss1 receptor (GPR54) binding activity of agonists, FRET detection in NFAT-bla CHO-K1 cells
# Format: cell-based
# Conditions: GPR54; measured according to the method of effect Embodiment 1; preliminary data; read-out: Preliminary measurement data (GPR54) EC50
# Procedure: Effect Embodiment 1 Determination of Kiss1 Receptor (GPR54) Binding Activity of Kiss1 Receptor (GPR54) Agonist
# The binding activity test of each compound from the above the embodiments with kiss1 receptor (GPR54) was performed by fluorescence energy resonance transfer (FRET) detection technology to detect EC50 values of polypeptides and peptide analogs. The cells used in this experiment were NFAT-bla CHO-K1 cells (k1720, invitrogen, thermosher) that express human kiss1 receptor (GPR54). The specific operations were as follows:
# Day 1: Seeding Cells in Plate
# 1. Microscope (CKX41, OLYMPUS), object lens×4 times, ocular lens×10 times. The cells were ensured in a good condition.
# 2. Digesting the cells, adding 3 ml of 0.05% pancreatin into a culture dish; cells were placed in a 37° C., 5% CO2 incubator for 2 minutes (Thermo Fisher). After the cells became round under the microscope, 7 ml of culture medium was added. The formula of culture medium was as follows: DMEM 90%, dialzedfbS10, NEAA 0.1 mM, HEPES 25 mM, Penicillin 100 U/ml, Streptomycin 100 μm/ml, pH7.3. After blowing and stirring, it was transferred to 15 mL centrifuge tube (430790, Corning). Centrifuge at 1000 rpm for 5 min (5810R, Eppendorf) and the supernatant was discard.
# 3. Adding 7 mL of culture medium (DMEM+0.1% BSA), it was pipetting into single cell suspension, after counting with Bio-RAD counter, the cell density was adjusted to 312,500 cells/ml.
# 4. Cells were inoculated into 384 well plates at 32 μL per well, and the cell number was controlled at 10000 cells/well. 32 μl of culture medium was added into the blank control.
# Day 2: Dosing and Data Analysis
# 1) The compound to be tested was prepared into 50 mM working solution with DMSO.
# 2) 40 μl of the working solution of the compound to be tested was added into column 2 of row A-H of U-shaped 96-well plate (3797, comings), and 60 μl of DMSO was added into column 3-11. 20 μl of compound solution was sucked from the second column to the third column with a multichannel pipette blowing and stirring evenly; 20 μl of compound solution was absorbed from the third column with a multichannel pipette, then added into the fourth column, blowed and stirred to mix well; the compound was serially diluted 4-fold to a total of 10 concentrations. Column 1 and column 12 of 96-well plates were supplemented with 40 μl DMSO.
# 2. Intermediate Plate Configuration
# 1) AU-shaped 96-well plate was used, 199 μL of culture medium (DMEM+0.1% BSA) was added to each well, 1 μL of diluted compound (or DMSO) was sucked from 1000× compound plate and added into the 96-well plate at the corresponding position, blowed and stirred to mix well.
# 2) Homemade positive compounds and compounds to be tested were added. The cell culture plate was took out from the incubator and cells state was observed under microscope. Diluted compound in the intermediate plate or DMSO was added into the cell, 8 μl per well.
# 3) Cells were cultured in 37° C. and 5% CO2 for 4 hours.
# 3. The Substrate was Added to Detect the Binding of the Drug to the Receptor
# 1) 1 μmol/L CCF-4AM solution and buffer solution B, C, D were equilibrated to room temperature. LiveBLAZER™-FRET B/G Loading Kit (K1095, thermo Fisher) containing CCF-4AM and solution B, solution C, solution D were also available from Invitrogen (K1157, thermo Fisher).
# 2) 6× loading solution was prepared: 6 μl of CCF-4AM dissolved solution A, 60 μl of solution b, 904 μl of solution c, and 30 μl of solution D were pipetted into EP tube, blowed and stirred to mix well.
# 3) 8 μl of the above-mentioned liquid was sucked with a multichannel pipette, added into a 96-well plate, and incubated for 2 hours at room temperature.
# 4) The PerkinElmer detector was used to detect the luminous signals of each hole. FI mode, λex=409 nm, λem1=460 nm, λem2=530 nm.
# 4. Data Processing Using Graphpad Prism 5 (GraphPad Software. Inc)
# Effective rate %=(Signal−Min)/(Max−Min)×100%.
# T1 sequence (Q969F8 whole entry): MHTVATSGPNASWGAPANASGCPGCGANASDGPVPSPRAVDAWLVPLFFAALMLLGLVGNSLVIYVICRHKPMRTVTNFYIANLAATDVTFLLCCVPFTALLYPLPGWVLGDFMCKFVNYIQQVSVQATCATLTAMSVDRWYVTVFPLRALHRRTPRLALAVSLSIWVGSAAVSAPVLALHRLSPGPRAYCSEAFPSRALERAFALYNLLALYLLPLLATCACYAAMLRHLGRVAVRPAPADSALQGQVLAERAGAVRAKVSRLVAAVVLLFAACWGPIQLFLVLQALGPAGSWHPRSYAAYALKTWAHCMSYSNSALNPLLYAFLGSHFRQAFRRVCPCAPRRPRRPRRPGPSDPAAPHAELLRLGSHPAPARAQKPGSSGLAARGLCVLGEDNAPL
row,EC50,Compound
1,0.5 nM,"CNC(=N)NCCC[C@H](NC(=O)[C@H](CC(C)C)NC(=O)C1(NC(=O)[C@H](Cc2ccccc2)NC(=O)[C@@H](NC(=O)[C@H](CC(N)=O)NC(=O)[C@@H]2CC(F)(F)CN2C(=O)[C@@H](Cc2ccc(F)cc2)NC(C)=O)[C@@H](C)O)CCCCC1)C(=O)N[C@@H](Cc1c[nH]c2ccccc12)C(N)=O [YA-212, Ac-[D-Phe(4-F)]-Pro(diF)-Asn-Thr-Phe-A6c-Leu-Arg(Me)-Trp-NH2] (Ac-[dPhe(4-F)][Pro(4,4-F2)]NTF[Ac6c]L[Arg(Me)]W-NH2)"
2,0.4 nM,"CNC(=N)NCCC[C@H](NC(=O)[C@H](CC(C)C)NC(=O)[C@@H]1CCN1C(=O)[C@H](Cc1ccccc1)NC(=O)[C@@H](NC(=O)[C@H](CC(N)=O)NC(=O)[C@@H]1CC(F)(F)CN1C(=O)[C@@H](Cc1ccc(F)cc1)NC(C)=O)[C@@H](C)O)C(=O)N[C@@H](Cc1c[nH]c2ccccc12)C(N)=O [YA-213, Ac-[D-Phe(4-F)]-Pro(diF)-Asn-Thr-Phe-Aze-Leu-Arg(Me)-Trp-NH2] (Ac-[dPhe(4-F)][Pro(4,4-F2)]NTF[Aze]L[Arg(Me)]W-NH2)"
3,0.083 nM,"CNC(=N)NCCC[C@H](NC(=O)[C@H](CC(C)C)NC(=O)NNC(=O)[C@H](Cc1ccccc1)NC(=O)[C@@H](NC(=O)[C@H](CC(N)=O)NC(=O)[C@@H]1C[C@@H](O)CN1C(=O)[C@@H](Cc1ccc(Cl)cc1)NC(C)=O)[C@@H](C)O)C(=O)N[C@@H](Cc1c[nH]c2ccccc12)C(N)=O [YA-214, Ac-[D-Phe(4-Cl)]-Hyp-Asn-Thr-Phe-azaGly-Leu-Arg(Me)-Trp-NH2] (Ac-[dPhe(4-Cl)][Hyp]NTF[azaGly]L[Arg(Me)]W-NH2)"
4,0.122 nM,"CNC(=N)NCCC[C@H](NC(=O)[C@H](CC(C)C)NC(=O)NNC(=O)[C@H](Cc1ccccc1)NC(=O)[C@@H](NC(=O)[C@H](CC(N)=O)NC(=O)[C@@H]1C[C@@H](O)CN1C(=O)[C@@H](Cc1cccc(Cl)c1)NC(C)=O)[C@@H](C)O)C(=O)N[C@@H](Cc1c[nH]c2ccccc12)C(N)=O [YA-215, Ac-[D-Phe(3-Cl)]-Hyp-Asn-Thr-Phe-azaGly-Leu-Arg(Me)-Trp-NH2] (Ac-[dPhe(3-Cl)][Hyp]NTF[azaGly]L[Arg(Me)]W-NH2)"
5,0.64 nM,"CNC(=N)NCCC[C@H](NC(=O)[C@H](CC(C)C)NC(=O)[C@@H]1Cc2ccccc2N1C(=O)[C@H](Cc1ccccc1)NC(=O)[C@@H](NC(=O)[C@H](CC(N)=O)NC(=O)[C@@H]1C[C@@H](O)CN1C(=O)[C@@H](Cc1ccc(O)cc1)NC(C)=O)[C@@H](C)O)C(=O)N[C@@H](Cc1c[nH]c2ccccc12)C(N)=O [YA-221, Ac-D-Tyr-Hyp-Asn-Thr-Phe-Ind-Leu-Arg(Me)-Trp-NH2] (Ac-[dY][Hyp]NTF[X12]L[Arg(Me)]W-NH2)"
6,4.4 nM,"CNC(=N)NCCC[C@H](NC(=O)[C@H](CC(C)C)NC(=O)[C@@H]1Cc2ccccc2N1C(=O)[C@H](Cc1ccccc1)NC(=O)[C@@H](NC(=O)[C@H](CC(N)=O)NC(=O)[C@@H]1CC(F)(F)CN1C(=O)[C@@H](Cc1ccco1)NC(C)=O)[C@@H](C)O)C(=O)N[C@@H](Cc1c[nH]c2ccccc12)C(N)=O [YA-223, Ac-[3-(2-furyl)-D-Ala]-DifluoroPro-Asn-Thr-Phe-Ind-Leu-Arg(Me)-Trp-NH2] (Ac-[dAla(2-furyl)][Pro(4,4-F2)]NTF[X12]L[Arg(Me)]W-NH2)"
7,6.5 nM,"CNC(=N)NCCC[C@H](NC(=O)[C@H](CC(C)C)NC(=O)C1(NC(=O)[C@H](Cc2ccccc2)NC(=O)[C@@H](NC(=O)[C@H](CC(N)=O)NC(=O)[C@@H]2CC(F)(F)CN2C(=O)[C@@H](Cc2ccco2)NC(C)=O)[C@@H](C)O)CCCCC1)C(=O)N1Cc2ccccc2C[C@H]1C(N)=O [YA-224, Ac-[3-(2-furyl)-D-Ala]-DifluoroPro-Asn-Thr-Phe-A6C-Leu-Arg(Me)-Tic-NH2] (Ac-[dAla(2-furyl)][Pro(4,4-F2)]NTF[Ac6c]L[Arg(Me)][Tic]-NH2)"
